Laboratory results from patent US20080038429A1, “Taste Improving Substances” (QUEST INTERNATIONAL SERVICES B,V,, priority 2004, published 2008).

Columns and labels:
[1] = Professional panel tasting of 0% fat strawberry yoghurt (Example 4)
Procedure: Four yoghurt samples were prepared: • A: Yoghurt 0% fat+strawberry flavour+sucralose (25%) 300 ppm • B: Yoghurt 0% fat+strawberry flavour+sucralose (25%) 300 ppm+10 ppm N-gluconyl ethanolamme (as prepared in Example 2) • C: Yoghurt 0% fat+strawberry flavour+4% sugar • D: Yoghurt 0% fat+strawberry flavour+4% sugar+10 ppm N-gluconyl ethanolamine (as prepared in Example 2)
(§1) The yoghurts were tasted by a professional panel.

[2] = Professional panel tasting of 3% fat strawberry yoghurt (Example 5); settings: sample B: Yoghurt 3% fat+strawberry flavour+4% sugar+10 ppm; reference A without: tart, acidic
Procedure: Two yoghurt samples were prepared: • A: Yoghurt 3% fat+strawberry flavour+4% sugar • B: Yoghurt 3% fat+strawberry flavour+4% sugar+10 ppm N-gluconyl ethanolamine (as prepared in Example 2)
as §1

[3] = Professional panel tasting of strawberry ice cream, 8% vegetable fat (Example 6); settings: sample B: Ice cream (8% vegetable fat)+strawberry flavour+10 ppm, reference A without: sweet, creamy aftertaste
Procedure: Two ice cream (8% vegetable fat) samples were prepared: • A: Ice cream+strawberry flavour • B: Ice cream+strawberry flavour+10 ppm N-gluconyl ethanolamine (as prepared in Example 2)
The ice creams were tasted by a professional panel. There was general agreement among the group on the taste descriptions: • A: sweet, strawberry, creamy aftertaste.

[4] = Professional panel tasting of still lemon beverages (Example 7); settings: sample C: tap water with sucrose (6.2 brix)+lemon flavour+30 ppm; B (6.2 brix, without): empty, less sweet; A (7 brix): sweet
Procedure: Three still beverages were prepared: • A: Tap water with sucrose (7 brix) and 1.5 g/l of citric acid+lemon flavour • B: Tap water with sucrose (6.2 brix) and 1.5 g/l of citric acid+lemon flavour • C: Tap water with sucrose (6.2 brix)+lemon flavour+N-gluconyl ethanolamine 30 ppm (as prepared in Example 2)
The beverages were tasted by a professional panel.

[5] = Professional panel tasting of standard chicken soup (Example 8); settings: 7 ppm, versus soup without
Procedure: A standard chicken soup was prepared. The quantity was split in two and to one half 7 ppm of N-gluconyl ethanolamine, as prepared in example 2, was added. The soups were tasted by a professional panel.

[6] = Professional panel tasting of sweet strawberry milk samples of different fat content (Example 10); settings: for taste description versus same milk without the substance: 6% sucrose, strawberry flavour, 10 ppm
Procedure: Six sweet milk samples, containing 6% sucrose, flavoured with a strawberry flavour were prepared:
1. Zero fat containing milk drink
2. Zero fat containing milk drink+10 ppm gluconyl ethanolamine (as prepared in example 2)
4. 1.5% fat milk+10 ppm gluconyl ethanolamine (as prepared in example 2)
6. Full fat milk+10 ppm gluconyl ethanolamine (as prepared in example 2)
(§2) All samples were tasted by a professional panel. There was general agreement about the differences in taste between the samples.

[7] = Professional panel tasting of instant vegetable soup of different fat content (Example 11)
Procedure: Four samples of standard instant vegetable soup were prepared:
1. Soup containing 2% fat
2. Soup containing 2% fat+7 ppm gluconyl ethanolamine (as prepared in example 2)
3. Soup containing 4% fat
4. Soup containing 4% fat+7 ppm gluconyl ethanolamine (as prepared in example 2)
5. Soup containing 6% fat
6. Soup containing 6% fat+7 ppm gluconyl ethanolamine (as prepared in example 2)
as §2

[8] = Professional panel evaluation of cigarettes with tobacco casings (Example 12); settings: casing B (2 g per 100 g casing mixture, 1 g/kg tobacco) versus casing A without
Procedure: The following mixtures were used as casings to improve the tobacco taste and improvement of the body of the smoke:
dosage of this mixture is 1 g/kg tobacco
Cigarettes were prepared from both types of tobacco, which were evaluated by a professional panel.

[9] = Professional panel tasting of salted potato chips (Example 13); settings: potato chips with salt (0.7%) and 100 ppm; reference chips: salty, slightly rancid, oily-greasy and cardboard-like
From the text: One sample of potato chips was seasoned with salt (0.7%).
Another sample of potato chips was seasoned with salt (0.7%) and flavoured with 100 ppm
N-gluconyl ethanolamine (as prepared in example 2).
The chips were tasted by a professional panel.
The reference chips were described as salty, slightly rancid, oily-greasy and cardboard-like.

[10] = Professional panel tasting of ketchup (Example 14); settings: ketchup pH 3.5, 20 ppm; base: strongly acidic, acetic acid-like, flat tomato profile
Procedure: Ketchup was prepared using 506 g of water, 150 g of tomato puree (28-30 Brix), 30 g of modified starch (Colflo 67 ex National Starch), 22 g of salt, 2 g of stabilizer Deltagel CE 1364) and 115 g of vinegar (12% acetic acid in water), by first mixing the dry ingredients, subsequently adding water and stirring until a homogeneous paste was obtained. Tomato puree and vinegar were than added and the mixture was stirred again and heated to a temperature of 95° C. for 1 minute. The mixture was filled off hot and allowed to cool down.
The pH was determined to be 3.5.
Part of the ketchup was mixed with 20 ppm N-gluconyl ethanolamine (as prepared in example 2).
The two ketchups were tasted and compared by a professional panel.
The ketchup base was described as strongly acidic, acetic acid-like, with a flat tomato profile.

[11] = Professional panel tasting of vinaigrette (Example 15); settings: 30 ppm, original: strongly acidic, acetic acid-like, thin, peaky
Procedure: A vinaigrette was prepared using 815.8 g of water, 100 g of sunflower oil, 12 g of salt, 30 g of sugar, 45 g of vinegar (12% acetic acid), 4 g of xanthan gum and 0.2 g of turmeric powder by mixing all ingredients intensively to obtain a homogeneous emulsion.
To a part of the vinaigrette 30 ppm of N-gluconyl ethanolamine (as prepared in example 2) was added.
Both vinaigrettes were tasted by a professional panel.
The original vinaigrette was described as strongly acidic, acetic acid-like, thin, peaky.

[12] = Sensory panel evaluation of tomato soups with reduced salt (Example 9)
Procedure: 10 gram of each composition was mixed with 100 ml hot water to obtain tomato soups. The different soups were tasted and evaluated by a sensory panel.

O=C(NCCO)[C@H](O)[C@@H](O)[C@H](O)[C@H](O)CO [N-gluconyl ethanolamine]
taste description ([1]; sample B: Yoghurt 0% fat+strawberry flavour+sucralose (25%) 300 ppm+10 ppm, reference A without: sweet, bitter, metallic, aftertaste): fuller more round and natural taste, more sugar sweetness, significantly less bitter metallic aftertaste | taste description ([1]; sample D: Yoghurt 0% fat+strawberry flavour+4% sugar+10 ppm, reference C without: tart, acidic): fuller more round and natural taste, more intense sweet | taste description [2]: much fuller, more fatty, more round and natural taste, more intense sweet | taste description [3]: fuller, more round and natural taste, enhanced sweetness and creaminess | taste description [4]: fuller, more round and natural taste, more intense sweet taste than B | taste description [5]: more tasteful, more complete, more body, more fatty | taste comparison with higher-fat milk without the substance ([6]; sample 2 (zero fat+10 ppm) versus sample 3 (1.5% fat milk)): quite similar and the main difference was that sample 2 and 4 were slightly more sweet | taste description versus same milk without the substance ([6]; sample 2: zero fat milk drink, versus sample 1): fuller, more round natural taste, more creamy and more sweet | taste comparison with higher-fat milk without the substance ([6]; sample 4 (1.5% fat+10 ppm) versus sample 5 (full fat milk)): quite similar and the main difference was that sample 2 and 4 were slightly more sweet | taste description versus same milk without the substance ([6]; sample 4: 1.5% fat milk, versus sample 3): fuller, more round natural taste, more creamy and more sweet | taste description versus same milk without the substance ([6]; sample 6: full fat milk, versus sample 5): fuller, more round natural taste, more creamy and more sweet | taste comparison with higher-fat soup without the substance ([7]; sample 2 (2% fat+7 ppm) versus sample 3 (4% fat)): quite similar and the main difference was that sample 2 and 4 tasted slightly more sweet | taste description versus same soup without the substance ([7]; sample 2: vegetable soup 2% fat+7 ppm, versus sample 1): more fatty, more natural, more round and more sweet | taste comparison with higher-fat soup without the substance ([7]; sample 4 (4% fat+7 ppm) versus sample 5 (6% fat)): quite similar and the main difference was that sample 2 and 4 tasted slightly more sweet | taste description versus same soup without the substance ([7]; sample 4: vegetable soup 4% fat+7 ppm, versus sample 3): more fatty, more natural, more round and more sweet | taste description versus same soup without the substance ([7]; sample 6: vegetable soup 6% fat+7 ppm, versus sample 5): more fatty, more natural, more round and more sweet | smoke evaluation of cigarettes [8]: significantly more “body” in the smoke and significantly more “expanding” tobacco smoke | taste description [9]: salty, exhibiting more fatty fullness, and masking of undesired notes of the reference chips | taste description [10]: mildly acidic, less acetic acid-like, exhibiting more sun-ripened tomato character, more fullness | taste description [11]: acidic, more rounded, more full, more fat impression, more smooth

O=C(NCCOP(=O)(O)O)[C@H](O)[C@@H](O)[C@H](O)[C@H](O)CO [N-gluconyl ethanolamine phosphate]
perceived saltiness ([12]; product C (3.5 g salt, 3.5 g Example 3 product per 100 g) versus product A (control, 7 g salt)): comparable to that of product A | panel preference ([12]; product C: tomato soup powder, 50% reduced salt, 3.5 g of Example 3 product per 100 g, 10 g in 100 ml hot water, versus product B (maltodextrin instead)): clearly preferred over product B | taste description ([12]; product C: tomato soup, 50% reduced salt, 3.5 g Example 3 product per 100 g powder): “more taste”, “more impact”, “more umami”, “more kokumi” and “salivating”
